Measurements from the NIST ThermoML archive (doi:10.1016/j.jct.2014.07.003).

Legend:
[1] = mn = molality of the nth substance listed, in mol/kg; conditions: 99 kPa, Liquid, Alternating current cell with electrodes
[2] = 99 kPa, Liquid, Alternating current cell with electrodes

CCCC[N+](CCCC)(CCCC)CCCC.[Br-] [tetrabutylammonium bromide] + O
[1], m1 = 0.01
Conditions	electrical conductivity [S/m]
288.15 K	0.106
293.15 K	0.0894
298.15 K	0.0829
303.15 K	0.0841
308.15 K	0.083
313.15 K	0.0843
318.15 K	0.0856

CCCCC[N+](CCCCC)(CCCCC)CCCCC.[Br-] [tetrapentylammonium bromide] + O
[1], m1 = 0.01
Conditions	electrical conductivity [S/m]
288.15 K	0.0961
293.15 K	0.0898
298.15 K	0.0879
303.15 K	0.09
308.15 K	0.0897
313.15 K	0.0881
318.15 K	0.0903

O [water]
[2]
Conditions	electrical conductivity [S/m]
288.15 K	0.0005
293.15 K	0.000281
298.15 K	0.000585
303.15 K	0.000687
308.15 K	0.00057
313.15 K	0.000608
318.15 K	0.000835

O [water] + CCCCCCCCCCCC[N+](C)(C)C.[Br-]
[1], m2 = 0
Conditions	electrical conductivity [S/m]
288.15 K	0.0005
293.15 K	0.000281
298.15 K	0.000585
303.15 K	0.000687
308.15 K	0.00057
313.15 K	0.000608
318.15 K	0.000835
